# Results reported in US11219627B2, “Clearance of amyloid beta” (priority 2014, dated 2022).
# Like-named read-outs stand apart in the source and are kept apart here.
# Assays:
# [1] = test system: patients with moderate, but not mild Alzheimer's disease; details: 36-week study; cited from earlier work
# [2] = test system: nicotinic receptors; details: cited from earlier work
# [3] = test system: patients with mild AD; details: 12 weeks; cited from earlier work
# [4] = molecular target: T1, acetylcholinesterase (Homo sapiens, UniProt P22303); details: read-out: IC50 for acetylcholinesterase inhibition; cited from earlier work
# T1 sequence (P22303 32-614, species assumed): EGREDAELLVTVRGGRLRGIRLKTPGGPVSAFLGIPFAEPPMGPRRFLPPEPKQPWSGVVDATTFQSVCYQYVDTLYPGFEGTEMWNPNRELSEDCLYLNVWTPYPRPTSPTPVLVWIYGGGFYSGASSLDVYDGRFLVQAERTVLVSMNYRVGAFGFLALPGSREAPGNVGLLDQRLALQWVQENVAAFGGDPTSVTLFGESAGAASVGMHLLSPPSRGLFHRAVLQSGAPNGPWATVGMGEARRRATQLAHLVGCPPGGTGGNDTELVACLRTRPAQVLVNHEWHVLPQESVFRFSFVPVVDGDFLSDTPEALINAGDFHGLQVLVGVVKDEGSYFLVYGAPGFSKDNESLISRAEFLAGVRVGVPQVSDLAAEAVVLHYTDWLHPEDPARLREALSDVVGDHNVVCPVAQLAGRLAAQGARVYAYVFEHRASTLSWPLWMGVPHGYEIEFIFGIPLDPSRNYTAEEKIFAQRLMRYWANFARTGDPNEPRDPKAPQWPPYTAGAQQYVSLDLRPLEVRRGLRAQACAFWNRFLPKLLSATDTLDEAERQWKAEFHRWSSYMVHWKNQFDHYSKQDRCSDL
# [5] = molecular target: T1, acetylcholinesterase; test: acetylcholinesterase inhibition; type: biochemical
# Source text: This compound was first described in Han et al as a cholinesterase inhibitor in Bioorg. & Medicinal Chemistry Letters 1, 11 579-580 (1991).
# [6] = test system: Bv-2 microglial cells; test: Abeta 1-42 oligomer clearance in microglial Bv-2 cell culture; type: cell-based; details: applied for 24 hours, 0.11 to 0.67 μM; oligomerized Aβ1-42 10 μM for 6 h
# Experimental: Abeta oligomers were prepared using beta-amyioid (1-42) from American Peptide (Product #62-0-80). One aliquot was dissolved in an adequate volume of TBS (50 mM Tris-Buffer, 150 mM NaCl, pH=7.4) to achieve a final concentration of 1.7 mg/ml (corresponding to 340 μM). The solution was sonicated for 2 minutes and then diluted 1:2 in water to obtain a final concentration of 170 μM. Next, the Abeta was allowed to aggregate at 4′C for 48 hours. Prior to application, the solution was sonicated for another minute.
# Bv-2 microglial cells were kept in culture medium (DMEM medium, 10% FBS, 2 mM glutamine, 1% Penc/Strep) until 80-90% confluency. Cells were maintained at 37° C., 95% humidity and 5% CO2. Afterwards, cells were seeded in culture medium on 24-well plates at a cell density of 1×10^5 cells per well. After 24 h, the medium was exchanged for the treatment medium (DMEM medium, 5% FBS, 2 mM glutamine). […] The medium was separated by affinity (removing monomers) and the oligomers not phagocytosed were disaggregated by HFIP treatment and measured by MSD. […]
# The immune assay was carried out according to the manual and plates were read on the Sector Imager (MSD). Analyte levels were evaluated according to adequate Aβ peptide standards (MSD). […] Group differences are evaluated by one-way ANOVA.
# [7] = stability in mouse plasma
# [8] = test system: mice; details: cited from earlier work
# [9] = test system: CA1 pyramidal neurons in the dorsal hippocampus; test: dendritic spine assessment after 5 days ip treatment; type: in vivo, mice
# Experimental: Adult C57B16 mice, (8 weeks old) were administered vehicle or SDL 11349, 0.005, 0.03, 0.07, 0.1 or 0.2 mg/kg, ip, per day for five days prior to sacrifice after rapid anesthetization with isofluorane. Brain tissue was sectioned into […] slices from anterior to posterior extremes.
# Ballistic dye labelling was performed, followed by laser-scanning confocal microscopy (Olympus FV1000) using a 63× objective (1.42 NA) to scan individually labelled neurons at high resolution (0.103×0.103×0.33 μm voxels). Target neurons were identified in the brain region of interest by anatomical location and cell morphology. Microscopy was performed blind to experimental conditions. A minimum of 5 samples per animal were measured for each segment.
# Blind deconvolution (AutoQuant) was applied to raw three-dimensional digital images which were then analyzed for spine density and morphology by trained analysts. Individual spines were measured manually for (a) head diameter, (b) length, and (c) neck thickness from image Z-stacks using custom-built Afraxis ESP software. Each dendrite was analyzed by 3 independent analysts.
# Automated image assignment software (C++) distributed images to analysts in a randomized manner and ensured that each analyst performed measurements of near equal numbers of dendrites per group. Analysts were blinded to all experimental conditions. […] For spine density and spine morphological classification, data across analysts were averaged to report data for each dendrite. Data population values (N's) were reported from dendrites collected equally from all mice.
# Values are reported in tables and plots as group means±standard errors of the mean (SEMs). For all group comparisons of parametric values, statistical significance was determined using the analysis of variance test (ANOVA; SPSS). Post-hoc comparisons were assessed using the Student's t-test (2 tails). […]
# Dendritic spine morphology was analyzed from samples taken from secondary apical dendrites, and secondary basal dendrites of CA1 pyramidal neurons in the dorsal hippocampus. […] A 50 μm segment was analyzed from each location.
# [10] = liver microsome stability; type: in vitro ADME, Mouse
# [11] = test system: CaCo-2 cells; test: in vitro permeability of a layer of CaCo-2 cells; type: in vitro ADME, human
# [12] = test system: Mice with lesions of the nucleus basalis magnocellularis (nBm); details: cited from earlier work
# [13] = test system: Rat cortical neurons; test: neurite network assessment with Aβ1-42 oligomers in cortical cell culture; type: cell-based; details: 1 μM; Aβ oligomer 20 μM, 24 h
# Experimental: Rat cortical neurons were cultured as described by Callizot et al (J Neurosci Res 2013, 91:706-716). On day 11 of culture, Aβ oligomer solution, 20 μM, was applied. The Aβ oligomer preparation, having an average weight of 90 kDa, prepared as described by Callizot et al (op cit) contained only diffusible species, not fibrils or protofibrils. Briefly, Aβ1-42 peptide at a concentration of 40 μM was dissolved in the culture medium, gently agitated for 3 days at 37° C. in the dark, and used immediately after dilution. SDL 11349 and BDNF (50 ng/ml) were dissolved in culture medium (maximum of 0.1% DMSO final concentration) then pre-incubated with primary cortical neurons for 24 h before the Aβ1-42 oligomer solution application.
# The oligomers were incubated with the neurons and various concentrations of SDL 11349, or BDNF, 50 ng/ml, the positive control, for 24 hours, in 6 replicates per condition. Then the supernatant was removed and the neurons were fixed with a cold ethanol and acetic acid solution. The cells were permeabilized with 0.1% saponin and then incubated for 2 h with mouse monoclonal antibody […] microtubule-associated protein 2 (MAP-2). Subsequently, Alexa-Fluor 488 goat anti-mouse IgG was applied, and images were obtained and analyzed automatically.
# [14] = molecular target: T2, α7 nicotinic receptors (Rattus norvegicus, UniProt Q05941); details: cited from earlier work
# T2 construct: Primary cultured rat neurons can be depolarized by the application of 1.5 mM choline; endogenous in cells; host or cells: primary cultured rat neurons
# T2 sequence (Q05941 23-502): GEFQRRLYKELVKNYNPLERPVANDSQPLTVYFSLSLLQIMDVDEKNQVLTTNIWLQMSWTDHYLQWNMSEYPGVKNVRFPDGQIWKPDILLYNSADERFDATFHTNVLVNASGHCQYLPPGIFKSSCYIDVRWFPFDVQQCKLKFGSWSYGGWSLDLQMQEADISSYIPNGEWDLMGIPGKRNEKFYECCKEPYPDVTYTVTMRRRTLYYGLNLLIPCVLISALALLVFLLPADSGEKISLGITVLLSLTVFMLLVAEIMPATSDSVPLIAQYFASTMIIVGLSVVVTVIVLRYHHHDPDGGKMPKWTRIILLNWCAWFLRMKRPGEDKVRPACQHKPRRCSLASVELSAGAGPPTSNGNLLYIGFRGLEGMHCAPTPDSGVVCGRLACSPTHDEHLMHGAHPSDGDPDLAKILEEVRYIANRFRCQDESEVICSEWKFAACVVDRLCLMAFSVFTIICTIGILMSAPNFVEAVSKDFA
# [15] = test system: γ-secretase; details: human, in vivo; cited from earlier work
# [16] = test system: mild to moderate AD; details: cited from earlier work; for reduction in loss on the ADAS-cog: mild patients
# [17] = test system: patients with Alzheimer's disease; details: cited from earlier work
# [18] = test system: CSF Aβ42; details: single-dose study, dose-dependent; cited from earlier work
# [19] = test system: patients with Alzheimer's disease; test: combined solanezumab phase III studies by standard of care subgroup; type: in vivo, human
# Source text: The notion that the Alzheimer brain, and the brain which is developing, but has not yet reached the stage of classical Alzheimer's disease with dementia is impaired by both excess Aβ in the region of plaques, and subnormal Aβ concentrations in the ISF bathing healthy tissue away from plaques, has important treatment implications. The clinical outcome measures used to evaluate interventions designed to alter the course of AD depend on the function of intact, healthy synapses. Anti-amyloid agents would not be expected to target plaques and spare healthy tissue, but rather to further decrease ISF Aβ, which is already reduced to about half of normal in patients with AD or classical MCI. […] (J Alz Dis 2013; 33, S111-S120) 3D6, the […] of bapineuzemab, impaired neuronal viability, as have large doses of γ- and β-secretase inhibitors. […] The combined solanezumab phase III studies have been analyzed for solanezumab's performance in patients with and without cholinesterase inhibitor and memantine treatments (called standard of care—SOC). […] ChEls might improve the function of the normal cells, allowing the antibody to show a net benefit because of its binding of Aβ where it is toxic.
molecule,measurement,setting,value
Oc1c(I)cc(Cl)c2cccnc12 [Clioquinol],ADAS-cog,[1],decreased deterioration on the ADAS-cog
CC12CC3CC(C)(C1)CC(N)(C3)C2 [Memantine],blockade of nicotinic receptors,[2],potent blocker of nicotinic receptors
CN(C)Cc1ccc2c(Cl)cc(Cl)c(O)c2n1 [PBT2],CSF Aβ42,[3],decreased significantly
"CCCCNC(=O)O[C@H]1C=C[C@@]23CCN(C)Cc4ccc(OC)c(c42)O[C@H]3C1 [SDL 11349, n-butylcarbamate derivative (4aS,6R,8aS)-5,6,9,10,11,12-hexahydro-3-methoxy-11-methyl-4aH-[1]benzofuro[3a,3,2-ef][2]benzazepin-6-ol]",IC50,[4],1090 nM
same,enzymatic activity relative to galantamine,[5],about 36%
same,reduction of β-amyloid oligomer concentration in the medium,[6],38-40%
same,plasma concentrations at two hours compared with galantamine,[7],slightly lower than those of galantamine
same,stability in mouse plasma,[7],stable for greater than two hours
same,dose at which decreased motility appeared,[8],> 30 mg/kg
same,lethality (no lethality up to),[8],> 100 mg/kg
same,adverse effects observed,[8]; doses of 50-100 mg/kg,"wobbly and off-balance with rapid heart rate still present at 4 hours, but were recovered at 24 hours"
same,"total spine density, basal samples",[9]; 0.005-0.2 mg/kg ip per day for five days,no effect
same,"total spine density, apical dendritic samples, versus vehicle","[9]; 0.005-0.2 mg/kg ip per day for five days, all dose groups","statistically significant difference (p<0.05, 2-tailed t-test) or trend (p<.01) compared to vehicle controls"
same,mature spines on apical dendrites of CA1 pyramidal neurons,[9]; treatment for 5 days,specifically increases mature spines
same,NADPH-free T1/2 (half-life),"[10]; 5.0 μM, Mouse",>60 min
same,half-life in liver microsomes,[10]; in-vitro preparation,greater than 60 minutes
same,microsomal CLint at 5 μM,"[10]; liver microsomes, 5.0 μM, Mouse, read-out: NADPH-dependent CLint (microsomal intrinsic clearance)",23.5 µL/min/mg
same,predicted oral bioavailability,[11]; based on in vitro CaCo-2 permeability,80%
same,mean A−>B Papp (apparent permeability),[11]; test conc 50 μM,20.8 10^−6 cm s^−1
same,additional time remaining in the lighted compartment versus saline,"[12]; given during training, optimal performance",about 100 seconds
same,best dose for memory enhancement,[12]; passive avoidance,0.5 mg/kg
same,effect on Aβ oligomer-induced loss of neurite network,[13],blocked the toxic effect of the Aβ oligomers
same,enhancement of the depolarization caused by choline,"[14]; 1 μM, 1.5 mM choline",15.9±2.1%
same,"enhancement in presence of FK-1, antibody to the galantamine recognition site",[14],blocked
C[C@@H](C(=O)O)c1ccc(-c2ccccc2)c(F)c1 [tarenflurbil],Phase III outcome,[15],failed in Phase III
Solanezumab: antibody directed at the central portion of Aβ,reduction of functional decline (ADCS-ADL),[16]; Expedition II,19%
same,reduction in loss on the ADAS-cog,[16]; Expedition I,42%
same,reduction in loss on the ADAS-cog,[16]; Expedition II,20%
same,decrease of activities of daily living loss,[16]; mild subgroups combined,17%
same,slowing of cognitive loss,[16]; mild subgroups combined,34%
same,LS Mean Change (SE) from Baseline to Week 80 in ADAS-Cog14 Scores,[17]; AChEI + Memantine,9.8 (0.8)
same,LS Mean Change (SE) from Baseline to Week 80 in ADAS-Cog14 Scores,[17]; AChEI only,6.8 (0.5)
same,LS Mean Change (SE) from Baseline to Week 80 in ADAS-Cog14 Scores,[17]; Memantine only,11.2 (1.9)
same,LS Mean Change (SE) from Baseline to Week 80 in ADAS-Cog14 Scores,[17]; No SOC,6.5 (1.3)
same,rise in CSF Aβ42,[18],up to 35%
same,benefit on the ADAS-cog versus placebo,"[19]; cholinesterase inhibitors, without memantine",2.1 points
same,excess cognitive deterioration on the ADAS-cog versus placebo,[19]; patients not receiving cholinesterase inhibitors,3.6 points
same,excess cognitive deterioration on the ADAS-cog versus placebo,[19]; patients on memantine only,4.1 points
